This experiment has as its system Recombinant ChLAC8. Description: Laccase activity assay and enzyme kinetics of recombinant ChLAC8 with monolignol substrates. It is filed as biochemical, Cleome hassleriana. As to conditions: for oxidation of monolignol by ChLAC8 (decrease in substrate by HPLC): 200 μM substrate, 30 min, 25° C.; for dimers in reaction products (LC-MS/MS) / trimers in reaction products (LC-MS/MS): reaction with ChLAC8; for Kcat / Km / Vmax: recombinant ChLAC8, substrate 25 to 800 μM, pH 6.8, 25° C. As for the experimental part:
The open reading frame (ORF) of ChLAC8 (ChLAC8X1, XM_010555066.1) was amplified with the primers listed in Wang Supp. Table 4, ligated into the pENTR/D-TOPO vector (Invitrogen), and subcloned into pDEST17 fused with a 6× histidine tag at the N-terminus via Gateway LR recombination reaction (Invitrogen). The resulting vector (pDEST17-ChLAC8) was transformed into E. coli Rosetta (DE3) (Novagen) for protein expression. The transgenic E. coli strain was cultured in LB medium at 37° C. until OD600=0.4-0.6 and then supplemented with 0.5 mM isopropyl-β-D-thiogalactoside (IPTG) to induce the expression of ChLAC8 at 16° C. for 20 h. After induction, cell cultures were harvested by centrifugation at 10,000×g for 5 min at 4° C., and the resulting pellets were used for ChLAC8 protein purification via Ni-NTA resin (Thermo Scientific) according to the manufacturer's manual. The eluted protein was further desalted into 50 mM potassium phosphate buffer (pH 6.8) using a 30 kDa cut-off Amicon Ultra centrifugal filter (Millipore). The purity of recombinant ChLAC8 was examined by SDS-PAGE and the protein concentration was quantified by Bradford assays.
Laccase activity assays were performed in a 100 μL reaction mixture consisting of 50 mM potassium phosphate buffer (pH 6.8), 10-20 μg of recombinant ChLAC8, and 200 μM monolignol substrate (caffeyl alcohol, coniferyl alcohol or sinapyl alcohol). The reactions were incubated at 25° C. for 30 min and terminated by adding 100 μL of methanol. The reaction products were injected into an HPLC or LC-MS/MS system for analysis as described below. The decrease in the level of the substrate was measured to calculate the enzyme activity. To determine kinetic parameters, ChLAC8 was incubated with different concentrations of caffeyl alcohol or sinapyl alcohol in a range from 25 to 800 μM. The enzyme assays were performed in triplicate at each substrate concentration, and the Vmax and Km values were calculated by Graphpad Prism 8 software with nonlinear regression analysis.
The reaction products were analyzed on an Agilent 1260 HPLC system equipped with a Luna C18(2) reverse-phase column (5 μm particle, 250×4.6 mm, Phenomenex) and separated in a mobile phase consisting of solvent A (1% in phosphoric acid in water) and solvent B (acetonitrile) with the following gradient: 5% B for 5 min, to 33% B in 25 min, to 45% B in 5 min, to 95% B in 5 min, keep at 95% B for 5 min, back to 5% B in 5 min.
LC-MS/MS analysis was performed using an Agilent 1290 Infinity II liquid chromatography system coupled to an Agilent 6400 Series Triple Quadrupole System with electrospray ionization source in negative ionization mode. A reverse phase ZORBAX RR Eclipse Plus C18, 95 Å, 4.6×250 mm, 5 μm (Agilent) was used for separation. The gradient for HPLC separation was 0.1% (v/v) formic acid in water (A) and 0.1% (v/v) formic acid in acetonitrile (B) with the following solvent gradient: 5% B for 5 min, to 40% B in 30 min, to 95% B in 5 min, 95% B for 5 min, to 5% B in 1 min. The total LC-MS/MS run was 46 min with a flow rate of 1.0 mL/min. Injection volume was 10 μL. MS data were recorded in the range of m/z 100-700 (Perna et al., 2018).

Each structure is given as a SMILES string. Marks after values point to notes of the source that are not given here.

What is called Km is the concentration of substrate that gives half-maximal velocity. As to `OC/C=C/c1ccc(O)c(O)c1` [Caffeyl alcohol, caffeyl alcohol], the “oxidation of monolignol by ChLAC8 (decrease in substrate by HPLC)” value (shortened to “oxidation … (decrease in substrate by HPLC)”) was “could oxidize”, the “dimers in reaction products (LC-MS/MS)” value is “consistent with the masses of dimers”, the “trimers in reaction products (LC-MS/MS)” value is “trimers were observed” and the Kcat is reported as 0.019 ± 0.003* sec^−1. The Michaelis-Menten constant (Km) came out at 210 ± 90.6 µM and the Vmax was found to be 284.4 ± 50.4 pKat mg^−1. For the same compound, under “recombinant ChLAC8”, the “Km value for caffeyl alcohol relative to that for sinapyl alcohol” value is around 3.5 fold.
On to `COc1cc(/C=C/CO)ccc1O` [Coniferyl alcohol, coniferyl alcohol], for which the “oxidation … (decrease in substrate by HPLC)” value is on record as “not” and the “dimers in reaction products (LC-MS/MS)” value is “No dimers were detected”.
With `COc1cc(/C=C/CO)cc(OC)c1O` [Sinapyl alcohol, sinapyl alcohol], the “oxidation … (decrease in substrate by HPLC)” value is “could oxidize”, the “dimers in reaction products (LC-MS/MS)” value was “consistent with the masses of dimers”, the “trimers in reaction products (LC-MS/MS)” value is listed as “No trimers were detected” and the Kcat stood at 0.013 ± 0.001 s⁻¹. Also, the Km is 60.2 ± 16.7 µM and the Vmax is given as 192.0 ± 12.8 pKat mg^−1.

Values taken from patent US12565659B2, “Recombinant lac polynucleotides and uses thereof to increase production of C-lignin in plants” (UNIVERSITY OF NORTH TEXAS, priority 2020, dated 2026).
